Laboratory results reported in ChEMBL document CHEMBL4411323 (Bioorg Med Chem, 2019).

Target: Serine/threonine-protein kinase B-raf (Homo sapiens, UniProt P15056, V600E)
Experiment: Inhibition of human BRAF V600E mutant using myelin basic protein as substrate measured after 40 mins in presence of [gamma33P-ATP] by scintillation counting method

Sequence of Serine/threonine-protein kinase B-raf (P15056 2-766 V600E limits assumed): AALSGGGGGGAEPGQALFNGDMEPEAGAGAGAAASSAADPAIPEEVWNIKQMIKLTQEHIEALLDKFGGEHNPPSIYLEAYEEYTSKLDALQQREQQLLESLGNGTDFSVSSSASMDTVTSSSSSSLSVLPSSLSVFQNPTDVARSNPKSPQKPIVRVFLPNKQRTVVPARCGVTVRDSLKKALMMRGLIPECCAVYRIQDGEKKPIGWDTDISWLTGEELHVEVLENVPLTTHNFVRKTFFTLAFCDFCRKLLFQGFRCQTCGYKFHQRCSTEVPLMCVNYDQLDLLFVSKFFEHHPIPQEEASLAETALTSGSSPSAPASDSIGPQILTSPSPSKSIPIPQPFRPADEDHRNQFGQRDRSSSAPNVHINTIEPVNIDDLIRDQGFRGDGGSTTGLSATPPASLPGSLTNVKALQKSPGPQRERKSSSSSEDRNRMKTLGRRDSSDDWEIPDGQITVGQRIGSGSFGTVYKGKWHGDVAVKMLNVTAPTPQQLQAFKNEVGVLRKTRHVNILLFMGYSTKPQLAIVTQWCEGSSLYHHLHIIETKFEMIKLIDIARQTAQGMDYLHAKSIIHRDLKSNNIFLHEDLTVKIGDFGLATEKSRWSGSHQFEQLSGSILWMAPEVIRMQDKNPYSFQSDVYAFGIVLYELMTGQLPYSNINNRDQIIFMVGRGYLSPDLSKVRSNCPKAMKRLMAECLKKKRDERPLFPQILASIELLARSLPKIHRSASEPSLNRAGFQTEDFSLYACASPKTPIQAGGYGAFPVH

`O=C(Nc1cccc(-n2cc(-c3ccncc3)c(-c3cc(O)cc(Cl)c3)n2)c1)Nc1ccc(Cl)c(C(F)(F)F)c1` was tested. Which IC50 did it give?
Its IC50 is 0.007 µM.

For `COc1cc(Cl)cc(-c2nn(-c3cccc(NC(=O)c4cc(C(F)(F)F)cc(C(F)(F)F)c4)c3)cc2-c2ccncc2)c1`, which IC50 is on record?
The IC50 was 7.41 µM.

Which IC50 does the source give for `COc1cc(Cl)cc(-c2nn(-c3cccc(NC(=O)Nc4ccc(Cl)c(C(F)(F)F)c4)c3)cc2-c2ccncc2)c1` here?
The IC50 was 0.189 µM.

With `COc1cc(Cl)cc(-c2nn(-c3cccc(NC(=O)c4ccc(Cl)c(Cl)c4)c3)cc2-c2ccncc2)c1` as the compound, how does the IC50 read?
The IC50 was 87.2 µM.

With `O=C(Nc1cccc(-n2cc(-c3ccncc3)c(-c3cc(O)cc(Cl)c3)n2)c1)c1cc(C(F)(F)F)cc(C(F)(F)F)c1` as the compound, how does the IC50 read?
The IC50 was 0.212 µM.

`O=C(Nc1ccccc1)Nc1cccc(-n2cc(-c3ccncc3)c(-c3cc(O)cc(Cl)c3)n2)c1` was tested. Which IC50 did it give?
The IC50 was 0.919 µM.

`O=C(Nc1cccc(-n2cc(-c3ccncc3)c(-c3cc(O)cc(Cl)c3)n2)c1)c1ccc(N2CCOCC2)c(C(F)(F)F)c1` was tested. Which IC50 did it give?
The IC50 was 0.014 µM.

For `O=C(Nc1cccc(-n2cc(-c3ccncc3)c(-c3cc(O)cc(Cl)c3)n2)c1)Nc1ccc(Cl)c(Cl)c1`, which IC50 is on record?
Its IC50 is 0.045 µM.

How did the IC50 turn out when `O=C(Nc1cccc(-n2cc(-c3ccncc3)c(-c3cc(O)cc(Cl)c3)n2)c1)Nc1cccc(C(F)(F)F)c1` was run?
The IC50 was 0.03 µM.

How did the IC50 turn out when `COc1cc(Cl)cc(-c2nn(-c3cccc(NC(=O)c4cccc(C(F)(F)F)c4)c3)cc2-c2ccncc2)c1` was run?
Its IC50 is 0.16 µM.

How did the IC50 turn out when `COc1cc(Cl)cc(-c2nn(-c3cccc(NC(=O)Nc4cccc(C(F)(F)F)c4)c3)cc2-c2ccncc2)c1` was run?
Its IC50 is 0.475 µM.

With `O=C(Nc1cccc(-n2cc(-c3ccncc3)c(-c3cc(O)cc(Cl)c3)n2)c1)Nc1cc(C(F)(F)F)cc(C(F)(F)F)c1` as the compound, how does the IC50 read?
The IC50 was 2.11 µM.

With `COc1cc(Cl)cc(-c2nn(-c3cccc(NC(=O)c4ccccc4)c3)cc2-c2ccncc2)c1` as the compound, how does the IC50 read?
Its IC50 is 3.69 µM.

Which IC50 does the source give for `O=C(Nc1cccc(-n2cc(-c3ccncc3)c(-c3cc(O)cc(Cl)c3)n2)c1)c1cccc(C(F)(F)F)c1` here?
The IC50 was 0.038 µM.

For `O=C(Nc1cccc(-n2cc(-c3ccncc3)c(-c3cc(O)cc(Cl)c3)n2)c1)c1ccccc1`, which IC50 is on record?
Its IC50 is 0.026 µM.

How did the IC50 turn out when `COc1cc(Cl)cc(-c2nn(-c3cccc(NC(=O)c4ccc(N5CCOCC5)c(C(F)(F)F)c4)c3)cc2-c2ccncc2)c1` was run?
Its IC50 is 0.348 µM.

How did the IC50 turn out when `O=C(Nc1cccc(-n2cc(-c3ccncc3)c(-c3cc(O)cc(Cl)c3)n2)c1)c1ccc(Cl)c(Cl)c1` was run?
The IC50 was 0.047 µM.

How did the IC50 turn out when `COc1cc(Cl)cc(-c2nn(-c3cccc(NC(=O)Nc4ccccc4)c3)cc2-c2ccncc2)c1` was run?
The IC50 was 0.488 µM.

Which IC50 does the source give for `COc1cc(Cl)cc(-c2nn(-c3cccc(NC(=O)Nc4ccc(Cl)c(Cl)c4)c3)cc2-c2ccncc2)c1` here?
The IC50 was 0.251 µM.
